Calls of active or inactive are those of the source. No cut-off for these calls is given here.
Legend:
Homo sapiens [1] = species: Homo sapiens; assay: Binding affinity to estrogen receptor (unknown origin) 10 umol/L by radioligand binding assay; details: dose 10.0 µmol/L
Homo sapiens [2] = species: Homo sapiens; assay: Binding affinity to Potassium voltage-gated channel (unknown origin) 10 umol/L by radioligand binding assay; details: dose 10.0 µmol/L
[3] = biological target: Adenosine receptor A3 (Homo sapiens) (UniProt P0DMS8); assay: Binding affinity to A3 receptor (unknown origin) 10 umol/L by radioligand binding assay; details: dose 10.0 µmol/L
Homo sapiens [4] = species: Homo sapiens; assay: Binding affinity to sodium channel site 2 (unknown origin) 10 umol/L by radioligand binding assay; details: dose 10.0 µmol/L
Homo sapiens [5] = species: Homo sapiens; assay: Binding affinity to Monoamine transporter (unknown origin) 10 umol/L by radioligand binding assay; details: dose 10.0 µmol/L
Homo sapiens [6] = species: Homo sapiens; assay: Binding affinity to Leukotriene B4 receptor (unknown origin) 10 umol/L by radioligand binding assay; details: dose 10.0 µmol/L
Homo sapiens [7] = species: Homo sapiens; assay: Binding affinity to bombesin receptor (unknown origin) 10 umol/L by radioligand binding assay; details: dose 10.0 µmol/L
[8] = biological target: Alpha-1A adrenergic receptor (Homo sapiens) (UniProt P35348); assay: Binding affinity to alpha1A adrenoreceptor (unknown origin) 10 umol/L by radioligand binding assay; details: dose 10.0 µmol/L
[9] = biological target: 5-hydroxytryptamine receptor 1A (Homo sapiens) (UniProt P08908); assay: Binding affinity to 5-HT1A receptor (unknown origin) 10 umol/L by radioligand binding assay; details: dose 10.0 µmol/L
[10] = biological target: Muscarinic acetylcholine receptor M5 (Homo sapiens) (UniProt P08912); assay: Binding affinity to muscarinic M5 (unknown origin) 10 umol/L by radioligand binding assay; details: dose 10.0 µmol/L
[11] = biological target: Sodium-dependent noradrenaline transporter (Homo sapiens) (UniProt P23975); assay: Binding affinity to norepinephrine transporter (unknown origin) 10 umol/L by radioligand binding assay; details: dose 10.0 µmol/L
Homo sapiens [12] = species: Homo sapiens; assay: Binding affinity to Kainate receptor (unknown origin) 10 umol/L by radioligand binding assay; details: dose 10.0 µmol/L
[13] = biological target: D(3) dopamine receptor (Homo sapiens) (UniProt P35462); assay: Binding affinity to D3 receptor (unknown origin) 10 umol/L by radioligand binding assay; details: dose 10.0 µmol/L
[14] = biological target: Delta-type opioid receptor (Homo sapiens) (UniProt P41143); assay: Binding affinity to delta opioid receptor (unknown origin) 10 umol/L by radioligand binding assay; details: dose 10.0 µmol/L
[15] = biological target: Beta-1 adrenergic receptor (Homo sapiens) (UniProt P08588); assay: Binding affinity to beta1 adrenoreceptor (unknown origin) 10 umol/L by radioligand binding assay; details: dose 10.0 µmol/L
[16] = biological target: Alpha-2C adrenergic receptor (Homo sapiens) (UniProt P18825); assay: Binding affinity to alpha2C adrenoreceptor (unknown origin) 10 umol/L by radioligand binding assay; details: dose 10.0 µmol/L
Homo sapiens [17] = species: Homo sapiens; assay: Binding affinity to D4.2 receptor (unknown origin) 10 umol/L by radioligand binding assay; details: dose 10.0 µmol/L
Homo sapiens [18] = species: Homo sapiens; assay: Binding affinity to GABAA receptor BZ central (unknown origin) 10 umol/L by radioligand binding assay; details: dose 10.0 µmol/L
[19] = biological target: Corticotropin-releasing factor receptor 1 (Homo sapiens) (UniProt P34998); assay: Binding affinity to CRF1(unknown origin) 10 umol/L by radioligand binding assay; details: dose 10.0 µmol/L
[20] = biological target: Sigma intracellular receptor 2 (Homo sapiens) (UniProt Q5BJF2); assay: Binding affinity to sigma2 receptor (unknown origin) 10 umol/L by radioligand binding assay; details: dose 10.0 µmol/L
Homo sapiens [21] = species: Homo sapiens; assay: Binding affinity to nACh receptor (unknown origin) 10 umol/L by radioligand binding assay; details: dose 10.0 µmol/L
[22] = biological target: Mu-type opioid receptor (Homo sapiens) (UniProt P35372); assay: Binding affinity to mu receptor (unknown origin) 10 umol/L by radioligand binding assay; details: dose 10.0 µmol/L
Homo sapiens [23] = species: Homo sapiens; assay: Binding affinity to GABAA chloride channel central (unknown origin) 10 umol/L by radioligand binding assay; details: dose 10.0 µmol/L
[24] = biological target: Neuropeptide Y receptor type 2 (Homo sapiens) (UniProt P49146); assay: Binding affinity to Y2 receptor (unknown origin) 10 umol/L by radioligand binding assay; details: dose 10.0 µmol/L
Homo sapiens [25] = species: Homo sapiens; assay: Binding affinity to Small conductance calcium-activated potassium channel (unknown origin) 10 umol/L by radioligand binding assay; details: dose 10.0 µmol/L
Homo sapiens [26] = species: Homo sapiens; assay: Binding affinity to GABAA receptor agonist site (unknown origin) 10 umol/L by radioligand binding assay; details: dose 10.0 µmol/L
[27] = biological target: Histamine H1 receptor (Homo sapiens) (UniProt P35367); assay: Binding affinity to H1 receptor (unknown origin) 10 umol/L by radioligand binding assay; details: dose 10.0 µmol/L
Homo sapiens [28] = species: Homo sapiens; assay: Binding affinity to ATP-sensitive inward rectifier potassium channel (unknown origin) 10 umol/L by radioligand binding assay; details: dose 10.0 µmol/L
Homo sapiens [29] = species: Homo sapiens; assay: Binding affinity to NMDA receptor polyamine site (unknown origin) 10 umol/L by radioligand binding assay; details: dose 10.0 µmol/L
Homo sapiens [30] = species: Homo sapiens; assay: Binding affinity to GABAB (unknown origin) 10 umol/L by radioligand binding assay; details: dose 10.0 µmol/L
Homo sapiens [31] = species: Homo sapiens; assay: Binding affinity to IP3 receptor (unknown origin) 10 umol/L by radioligand binding assay; details: dose 10.0 µmol/L
[32] = biological target: Endothelin receptor type B (Homo sapiens) (UniProt P24530); assay: Binding affinity to ETB receptor (unknown origin) 10 umol/L by radioligand binding assay; details: dose 10.0 µmol/L
[33] = biological target: Cysteinyl leukotriene receptor 1 (Homo sapiens) (UniProt Q9Y271); assay: Binding affinity to Leukotriene D4 receptor (unknown origin) 10 umol/L by radioligand binding assay; details: dose 10.0 µmol/L
Homo sapiens [34] = species: Homo sapiens; assay: Binding affinity to Vasopressin V1 receptor (unknown origin) 10 umol/L by radioligand binding assay; details: dose 10.0 µmol/L
[35] = biological target: D(1B) dopamine receptor (Homo sapiens) (UniProt P21918); assay: Binding affinity to D5 receptor (unknown origin) 10 umol/L by radioligand binding assay; details: dose 10.0 µmol/L
[36] = biological target: T1, Voltage-gated L-type calcium channel (Homo sapiens, UniProt Q13936+Q13698+Q01668+O60840); assay: Binding affinity to Voltage-dependent L-type calcium channel benzothiazepine site (unknown origin) 10 umol/L by radioligand binding assay; format: protein assay; details: 10 µM, dose 10 µmol/L
[37] = biological target: D(2) dopamine receptor (Homo sapiens) (UniProt P14416); assay: Binding affinity to D2S receptor (unknown origin) 10 umol/L by radioligand binding assay; details: dose 10.0 µmol/L
[38] = biological target: Platelet-activating factor receptor (Homo sapiens) (UniProt P25105); assay: Binding affinity to PAF receptor (unknown origin) 10 umol/L by radioligand binding assay; details: dose 10.0 µmol/L
[39] = biological target: Alpha-2A adrenergic receptor (Homo sapiens) (UniProt P08913); assay: Binding affinity to alpha2A adrenoreceptor (unknown origin) 10 umol/L by radioligand binding assay; details: dose 10.0 µmol/L
[40] = biological target: Substance-K receptor (Homo sapiens) (UniProt P21452); assay: Binding affinity to NK2 receptor (unknown origin) 10 umol/L by radioligand binding assay; details: dose 10.0 µmol/L
Homo sapiens [41] = species: Homo sapiens; assay: Binding affinity to glycine receptor strychnine-sensitive binding site (unknown origin) 10 umol/L by radioligand binding assay; details: dose 10.0 µmol/L
[42] = biological target: Muscarinic acetylcholine receptor M1 (Homo sapiens) (UniProt P11229); assay: Binding affinity to muscarinic M1 (unknown origin) 10 umol/L by radioligand binding assay; details: dose 10.0 µmol/L
[43] = biological target: Gastrin/cholecystokinin type B receptor (Homo sapiens) (UniProt P32239); assay: Binding affinity to CCKB (unknown origin) 10 umol/L by radioligand binding assay; details: dose 10.0 µmol/L
[44] = biological target: T1, Voltage-gated L-type calcium channel; assay: Binding affinity to Voltage-dependent L-type calcium channel dihydropyridine site (unknown origin) 10 umol/L by radioligand binding assay; format: protein assay; details: 10 µM, dose 10 µmol/L
Homo sapiens [45] = species: Homo sapiens; assay: Binding affinity to NMDA receptor PCP site (unknown origin) 10 umol/L by radioligand binding assay; details: dose 10.0 µmol/L
[46] = biological target: B2 bradykinin receptor (Homo sapiens) (UniProt P30411); assay: Binding affinity to B2 receptor (unknown origin) 10 umol/L by radioligand binding assay; details: dose 10.0 µmol/L
Chain of B2 bradykinin receptor (Homo sapiens) (P30411 whole entry): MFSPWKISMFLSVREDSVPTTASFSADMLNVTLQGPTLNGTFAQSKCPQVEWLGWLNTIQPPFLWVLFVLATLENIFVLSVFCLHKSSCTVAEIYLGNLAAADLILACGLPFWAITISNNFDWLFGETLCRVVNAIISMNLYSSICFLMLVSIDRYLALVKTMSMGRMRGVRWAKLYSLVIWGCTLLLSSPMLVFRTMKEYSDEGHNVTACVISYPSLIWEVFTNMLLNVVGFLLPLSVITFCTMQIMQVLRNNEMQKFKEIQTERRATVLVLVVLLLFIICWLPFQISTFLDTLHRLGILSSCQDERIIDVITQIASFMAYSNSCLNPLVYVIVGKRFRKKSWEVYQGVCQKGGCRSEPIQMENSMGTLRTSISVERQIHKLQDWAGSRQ

Chain of Sigma intracellular receptor 2 (Homo sapiens) (Q5BJF2 whole entry): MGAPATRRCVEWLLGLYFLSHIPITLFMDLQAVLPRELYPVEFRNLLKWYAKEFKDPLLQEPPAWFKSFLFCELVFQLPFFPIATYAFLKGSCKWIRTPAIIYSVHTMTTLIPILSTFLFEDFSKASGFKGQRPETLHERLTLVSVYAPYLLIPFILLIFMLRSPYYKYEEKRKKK
Chain of Substance-K receptor (Homo sapiens) (P21452 whole entry): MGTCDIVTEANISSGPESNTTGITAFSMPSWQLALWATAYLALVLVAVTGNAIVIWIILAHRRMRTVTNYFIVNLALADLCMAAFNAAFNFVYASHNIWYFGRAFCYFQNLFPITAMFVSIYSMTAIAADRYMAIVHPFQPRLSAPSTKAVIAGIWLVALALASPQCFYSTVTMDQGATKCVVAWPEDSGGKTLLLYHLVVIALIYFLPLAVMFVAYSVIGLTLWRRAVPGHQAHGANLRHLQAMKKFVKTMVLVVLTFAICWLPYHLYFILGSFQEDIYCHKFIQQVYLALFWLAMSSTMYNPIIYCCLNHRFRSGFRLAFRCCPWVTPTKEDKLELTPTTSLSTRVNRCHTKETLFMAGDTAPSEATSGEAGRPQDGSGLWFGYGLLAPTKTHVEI
Chain of Muscarinic acetylcholine receptor M1 (Homo sapiens) (P11229 whole entry): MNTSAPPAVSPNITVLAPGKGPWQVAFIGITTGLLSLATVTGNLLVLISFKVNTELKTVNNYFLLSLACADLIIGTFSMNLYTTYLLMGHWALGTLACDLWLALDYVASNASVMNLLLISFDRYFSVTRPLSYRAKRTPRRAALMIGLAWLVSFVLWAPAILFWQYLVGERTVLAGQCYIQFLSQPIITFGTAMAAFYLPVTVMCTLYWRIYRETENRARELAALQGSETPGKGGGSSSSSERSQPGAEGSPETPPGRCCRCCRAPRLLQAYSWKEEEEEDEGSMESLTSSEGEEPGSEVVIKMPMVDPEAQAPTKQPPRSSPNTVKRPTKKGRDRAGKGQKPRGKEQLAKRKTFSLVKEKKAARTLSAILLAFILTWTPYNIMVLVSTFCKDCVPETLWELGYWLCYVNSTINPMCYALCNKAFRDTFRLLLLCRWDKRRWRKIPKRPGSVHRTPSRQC
Chain of Muscarinic acetylcholine receptor M5 (Homo sapiens) (P08912 whole entry): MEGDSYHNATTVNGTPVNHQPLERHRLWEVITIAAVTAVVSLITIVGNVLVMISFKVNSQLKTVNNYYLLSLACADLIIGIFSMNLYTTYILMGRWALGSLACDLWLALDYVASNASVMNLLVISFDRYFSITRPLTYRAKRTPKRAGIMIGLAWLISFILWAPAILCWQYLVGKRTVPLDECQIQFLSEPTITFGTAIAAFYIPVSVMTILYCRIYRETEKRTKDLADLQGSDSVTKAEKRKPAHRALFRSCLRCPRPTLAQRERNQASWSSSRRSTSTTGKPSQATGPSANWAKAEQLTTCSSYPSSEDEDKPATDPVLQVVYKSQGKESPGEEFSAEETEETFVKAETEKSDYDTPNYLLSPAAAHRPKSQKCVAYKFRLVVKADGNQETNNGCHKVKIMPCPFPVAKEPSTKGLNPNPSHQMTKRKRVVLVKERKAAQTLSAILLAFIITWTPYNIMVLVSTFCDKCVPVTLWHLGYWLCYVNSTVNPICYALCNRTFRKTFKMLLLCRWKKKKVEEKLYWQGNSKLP
Chain of Gastrin/cholecystokinin type B receptor (Homo sapiens) (P32239 whole entry): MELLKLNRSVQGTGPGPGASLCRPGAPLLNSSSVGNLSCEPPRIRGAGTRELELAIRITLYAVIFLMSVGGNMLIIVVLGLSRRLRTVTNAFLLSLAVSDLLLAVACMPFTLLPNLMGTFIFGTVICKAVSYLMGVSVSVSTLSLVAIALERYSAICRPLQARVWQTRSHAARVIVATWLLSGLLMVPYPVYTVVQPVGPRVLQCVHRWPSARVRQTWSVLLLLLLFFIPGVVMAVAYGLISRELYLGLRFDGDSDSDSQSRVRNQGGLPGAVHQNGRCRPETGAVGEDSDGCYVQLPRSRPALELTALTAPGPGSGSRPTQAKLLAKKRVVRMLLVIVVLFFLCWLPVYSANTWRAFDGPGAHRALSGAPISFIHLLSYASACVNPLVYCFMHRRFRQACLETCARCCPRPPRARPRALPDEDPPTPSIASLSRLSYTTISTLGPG
Chain of Alpha-2A adrenergic receptor (Homo sapiens) (P08913 whole entry): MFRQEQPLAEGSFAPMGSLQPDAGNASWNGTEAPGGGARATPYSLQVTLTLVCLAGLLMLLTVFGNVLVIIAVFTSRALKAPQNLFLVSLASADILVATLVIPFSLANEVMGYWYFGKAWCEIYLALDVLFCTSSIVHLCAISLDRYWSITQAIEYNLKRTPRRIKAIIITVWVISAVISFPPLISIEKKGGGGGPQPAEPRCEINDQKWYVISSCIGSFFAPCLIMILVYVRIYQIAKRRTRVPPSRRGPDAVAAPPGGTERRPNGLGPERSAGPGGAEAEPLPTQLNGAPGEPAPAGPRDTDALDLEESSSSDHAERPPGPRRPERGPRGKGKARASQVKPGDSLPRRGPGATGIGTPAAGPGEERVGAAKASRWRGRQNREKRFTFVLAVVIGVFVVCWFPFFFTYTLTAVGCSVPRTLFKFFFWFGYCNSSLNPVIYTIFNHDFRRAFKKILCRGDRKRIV
Chain of Adenosine receptor A3 (Homo sapiens) (P0DMS8 whole entry): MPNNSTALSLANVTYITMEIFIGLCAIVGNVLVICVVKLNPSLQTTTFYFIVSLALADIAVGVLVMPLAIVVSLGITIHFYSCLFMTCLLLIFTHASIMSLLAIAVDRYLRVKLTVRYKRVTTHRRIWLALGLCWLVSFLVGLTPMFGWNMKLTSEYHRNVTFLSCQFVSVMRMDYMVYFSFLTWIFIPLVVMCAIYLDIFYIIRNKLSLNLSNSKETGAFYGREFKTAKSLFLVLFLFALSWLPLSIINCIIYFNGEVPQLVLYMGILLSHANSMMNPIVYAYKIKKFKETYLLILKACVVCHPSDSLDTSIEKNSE
Chain of Histamine H1 receptor (Homo sapiens) (P35367 whole entry): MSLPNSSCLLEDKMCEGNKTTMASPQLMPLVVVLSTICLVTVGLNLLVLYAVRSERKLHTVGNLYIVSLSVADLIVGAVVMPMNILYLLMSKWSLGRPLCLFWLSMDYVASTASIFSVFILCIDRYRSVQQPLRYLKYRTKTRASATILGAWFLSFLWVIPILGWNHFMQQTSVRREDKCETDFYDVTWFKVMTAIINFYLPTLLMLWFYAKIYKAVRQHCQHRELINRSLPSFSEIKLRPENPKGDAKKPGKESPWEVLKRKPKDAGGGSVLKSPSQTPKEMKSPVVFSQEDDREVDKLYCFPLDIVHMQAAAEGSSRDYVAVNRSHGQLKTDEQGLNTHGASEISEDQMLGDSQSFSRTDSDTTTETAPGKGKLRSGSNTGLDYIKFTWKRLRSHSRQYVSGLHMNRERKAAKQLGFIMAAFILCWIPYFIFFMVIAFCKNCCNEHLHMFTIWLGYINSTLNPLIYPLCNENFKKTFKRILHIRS
Chain of Alpha-1A adrenergic receptor (Homo sapiens) (P35348 whole entry): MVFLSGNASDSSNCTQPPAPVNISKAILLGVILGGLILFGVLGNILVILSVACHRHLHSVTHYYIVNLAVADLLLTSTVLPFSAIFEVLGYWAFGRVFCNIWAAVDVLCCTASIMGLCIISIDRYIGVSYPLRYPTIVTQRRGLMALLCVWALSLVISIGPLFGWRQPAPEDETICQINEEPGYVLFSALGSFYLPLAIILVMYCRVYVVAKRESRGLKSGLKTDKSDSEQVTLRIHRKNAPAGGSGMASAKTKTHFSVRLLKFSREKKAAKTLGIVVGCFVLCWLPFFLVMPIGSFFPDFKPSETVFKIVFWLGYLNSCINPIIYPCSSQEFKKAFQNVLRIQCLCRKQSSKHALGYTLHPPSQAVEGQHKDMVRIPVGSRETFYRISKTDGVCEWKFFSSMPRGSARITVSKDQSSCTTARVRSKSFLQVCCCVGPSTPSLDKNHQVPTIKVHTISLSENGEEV
Chain of Corticotropin-releasing factor receptor 1 (Homo sapiens) (P34998 whole entry): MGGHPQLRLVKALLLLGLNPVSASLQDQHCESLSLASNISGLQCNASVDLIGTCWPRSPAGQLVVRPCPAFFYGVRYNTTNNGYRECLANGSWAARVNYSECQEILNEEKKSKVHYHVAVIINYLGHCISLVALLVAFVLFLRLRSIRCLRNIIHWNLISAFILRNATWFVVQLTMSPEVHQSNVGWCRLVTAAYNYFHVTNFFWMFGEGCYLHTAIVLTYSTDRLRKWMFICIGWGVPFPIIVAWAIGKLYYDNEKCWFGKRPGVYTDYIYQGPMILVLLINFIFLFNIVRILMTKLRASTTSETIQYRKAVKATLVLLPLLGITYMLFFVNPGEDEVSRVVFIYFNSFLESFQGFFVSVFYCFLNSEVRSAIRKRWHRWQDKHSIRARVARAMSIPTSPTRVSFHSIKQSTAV
Chain of Platelet-activating factor receptor (Homo sapiens) (P25105 whole entry): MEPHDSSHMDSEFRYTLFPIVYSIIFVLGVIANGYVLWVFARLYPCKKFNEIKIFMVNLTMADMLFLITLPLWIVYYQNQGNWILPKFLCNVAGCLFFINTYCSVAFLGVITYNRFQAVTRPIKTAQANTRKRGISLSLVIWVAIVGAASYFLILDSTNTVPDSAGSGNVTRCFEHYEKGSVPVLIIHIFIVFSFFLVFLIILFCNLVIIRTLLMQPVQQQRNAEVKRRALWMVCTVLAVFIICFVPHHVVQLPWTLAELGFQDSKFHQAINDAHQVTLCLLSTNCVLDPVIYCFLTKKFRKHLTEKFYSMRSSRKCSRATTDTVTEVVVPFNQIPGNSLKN

For `N[C@]1(C(=O)O)[C@H]2[C@@H](C[C@@H]1F)[C@@H]2C(=O)O`, the Activity (Homo sapiens [1]) was “inactive”, the Activity (Homo sapiens [2]) was “inactive” and the Activity [3] was “inactive”. The Activity (Homo sapiens [4]) was “inactive”, the Activity (Homo sapiens [5]) was “inactive” and the Activity (Homo sapiens [6]) was “inactive”. The Activity (Homo sapiens [7]) was “inactive”, the Activity [8] was “inactive” and the Activity [9] was “inactive”. For the same molecule, the Activity [10] was “inactive”, the Activity [11] was “inactive” and the Activity (Homo sapiens [12]) was “inactive”. The Activity [13] was “inactive”, the Activity [14] was “inactive” and the Activity [15] was “inactive”. For the same molecule, the Activity [16] was “inactive”, the Activity (Homo sapiens [17]) was “inactive” and the Activity (Homo sapiens [18]) was “inactive”. For the same molecule, the Activity [19] was “inactive”, the Activity [20] was “inactive” and the Activity (Homo sapiens [21]) was “inactive”. For the same molecule, the Activity [22] was “inactive”, the Activity (Homo sapiens [23]) was “inactive” and the Activity [24] was “inactive”. For the same molecule, the Activity (Homo sapiens [25]) was “inactive”, the Activity (Homo sapiens [26]) was “inactive” and the Activity [27] was “inactive”. The Activity (Homo sapiens [28]) was “inactive”, the Activity (Homo sapiens [29]) was “inactive” and the Activity (Homo sapiens [30]) was “inactive”. The Activity (Homo sapiens [31]) was “inactive”, the Activity [32] was “inactive” and the Activity [33] was “inactive”. The Activity (Homo sapiens [34]) was “inactive”, the Activity [35] was “inactive” and the Activity [36] was “Not Active”. For the same molecule, the Activity [37] was “inactive”, the Activity [38] was “inactive” and the Activity [39] was “inactive”. The Activity [40] was “inactive”, the Activity (Homo sapiens [41]) was “inactive” and the Activity [42] was “inactive”. For the same molecule, the Activity [43] was “inactive”, the Activity [44] was “Not Active” and the Activity (Homo sapiens [45]) was “inactive”. The Activity [46] was “inactive”.

With `CC(C)[C@@H]1CC[C@@H](C)C[C@H]1OC(=O)O[C@@H](C)OC(=O)[C@H]1[C@@H]2C[C@H](F)[C@@](N)(C(=O)O)[C@@H]21` the Activity (Homo sapiens [1]) was “inactive”, the Activity (Homo sapiens [2]) was “inactive” and the Activity [3] was “inactive”. For the same molecule, the Activity (Homo sapiens [4]) was “inactive”, the Activity (Homo sapiens [5]) was “inactive” and the Activity (Homo sapiens [6]) was “inactive”. The Activity (Homo sapiens [7]) was “inactive”, the Activity [8] was “inactive” and the Activity [9] was “inactive”. The Activity [10] was “inactive”, the Activity [11] was “inactive” and the Activity (Homo sapiens [12]) was “inactive”. For the same molecule, the Activity [13] was “inactive”, the Activity [14] was “inactive” and the Activity [15] was “inactive”. For the same molecule, the Activity [16] was “inactive”, the Activity (Homo sapiens [17]) was “inactive” and the Activity (Homo sapiens [18]) was “inactive”. For the same molecule, the Activity [19] was “inactive”, the Activity [20] was “inactive” and the Activity (Homo sapiens [21]) was “inactive”. For the same molecule, the Activity [22] was “inactive”, the Activity (Homo sapiens [23]) was “inactive” and the Activity [24] was “inactive”. For the same molecule, the Activity (Homo sapiens [25]) was “inactive”, the Activity (Homo sapiens [26]) was “inactive” and the Activity [27] was “inactive”. For the same molecule, the Activity (Homo sapiens [28]) was “inactive”, the Activity (Homo sapiens [29]) was “inactive” and the Activity (Homo sapiens [30]) was “inactive”. The Activity (Homo sapiens [31]) was “inactive”, the Activity [32] was “inactive” and the Activity [33] was “inactive”. For the same molecule, the Activity (Homo sapiens [34]) was “inactive”, the Activity [35] was “inactive” and the Activity [36] was “Not Active”. For the same molecule, the Activity [37] was “inactive”, the Activity [38] was “inactive” and the Activity [39] was “inactive”. The Activity [40] was “inactive”, the Activity (Homo sapiens [41]) was “inactive” and the Activity [42] was “inactive”. For the same molecule, the Activity [43] was “inactive”, the Activity [44] was “Not Active” and the Activity (Homo sapiens [45]) was “inactive”. For the same molecule, the Activity [46] was “inactive”.

Reference: ChEMBL document CHEMBL4706518, “Discovery of MGS0274, an ester prodrug of a metabotropic glutamate receptor 2/3 agonist with improved oral bioavailability” (Eur J Med Chem, 2020)
